Data published in patent US20180325889A1, “IMMUNOREGULATORY AGENTS” (FLEXUS BIOSCIENCES, INC., priority 2014, published 2018).
pIC50: −log10 of the molar value.

Molecular target: T1, human IDO1/HEK293 cells (Homo sapiens, UniProt P14902)
T1 construct: expressed in transfected cells
Assay: HEK Human IDO-1 cell-based IDO inhibition assay (kynurenine production)
Details: HEK293 cells stably expressing human IDO1, 20 hours incubation, absorbance at 490 nm; read-out: HEK Human IDO-1 Bio Activity (IDO IC50)
Experimental: They were cultured in medium (DMEM with 10% FBS) containing 1 mg/ml G418 for two weeks.
The human IDO1/HEK293 cells were seeded at 10,000 cells per 50 μL per well with RPMI/phenol red free media contains 10% FBS in a 384-well black wall clear bottom tissue culture plate (Matrix Technologies LLC) 100 nL of certain concentration of compound was then added to each well using ECHO liquid handling systems. The cells were incubated for 20 hours in 37° C. incubator with 5% CO2.
The compound treatments were stopped by adding trichloroacetic acid (Sigma-Aldrich) to a final concentration at 0.2%. The cell plate was further incubated at 50° C. for 30 minute. The equal volume supernatant (20 μL) and 0.2% (w/v) Ehrlich reagent (4-dimethylaminobenzaldehyde, Sigma-Aldrich) in glacial acetic acid were mixed in a new clear bottom 384-well plate. This plate was then incubated at room temperature for 30 minute. The absorbance at 490 nm was measured on Envision plate reader.

T1 sequence (P14902 whole entry): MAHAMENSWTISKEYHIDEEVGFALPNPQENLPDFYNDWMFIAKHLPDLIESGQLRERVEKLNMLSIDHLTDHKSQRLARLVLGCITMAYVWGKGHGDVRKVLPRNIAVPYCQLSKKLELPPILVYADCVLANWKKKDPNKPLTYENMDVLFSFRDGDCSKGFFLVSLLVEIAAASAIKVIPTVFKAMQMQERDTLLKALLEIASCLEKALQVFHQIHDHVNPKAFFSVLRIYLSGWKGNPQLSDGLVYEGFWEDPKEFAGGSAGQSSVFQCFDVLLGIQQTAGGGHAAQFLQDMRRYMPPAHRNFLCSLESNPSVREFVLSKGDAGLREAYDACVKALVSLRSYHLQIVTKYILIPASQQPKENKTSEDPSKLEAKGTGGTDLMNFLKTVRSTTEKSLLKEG

Row | Compound | pIC50
1 | C[C@@H](NC(=O)c1ccc(C#N)cc1)[C@H]1CC[C@@H](c2ccnc3ccc(F)cc32)CC1 [Example 176, 4-cyano-N-((R)-1-(cis-4-(6-fluoroquinolin-4-yl)cyclohexyl)ethyl)benzamide] | > 7.30
2 | CCC(NC(=O)c1ccc(Cl)cc1)[C@H]1CC[C@@H](Oc2ccncc2)CC1 (mixture of isomers) [Example 77a, (±)-4-Chloro-N-(1-((cis)-4-(pyridin-4-yloxy)cyclohexyl)propyl)benzamide] | > 6.60
3 | CC(NC(=O)c1ccc(Cl)cc1)C1CCC(c2ccc(C(F)(F)F)nc2)CC1 (single isomer, unassigned) [Example 217, 4-chloro-N-(1-(4-(6-(trifluoromethyl)pyridin-3-yl)cyclohexyl)ethyl)benzamide] | > 5.70
4 | CCC(NC(=O)c1ccc(C#N)cc1)C1CCC(c2ccnc3ccc(F)cc23)CC1 (single isomer, unassigned) [Example 165c, 4-Cyano-N-(1-(4-(6-fluoroquinolin-4-yl)cyclohexyl)propyl)benzamide] | > 7.30
5 | CCC(NC(=O)c1ccc(-n2cccc2)cc1)[C@H]1CC[C@@H](c2ccnc3ccc(C(F)(F)F)cc32)CC1 (some centres unmarked) [Example 255, 4-(1H-pyrrol-1-yl)-N-(1-((1s, 4s)-4-(6-(trifluoromethyl)quinolin-4-yl)cyclohexyl)propyl)benzamide] | > 7.30
6 | Cc1ccccc1C(=O)N[C@H](C)[C@H]1CC[C@@H](c2ccnc3ccc(F)cc32)CC1 [Example 49, N-((R)-1-((1s,4S)-4-(6-fluoroquinolin-4-yl)cyclohexyl)ethyl)-2-methylbenzamide] | > 7.30
7 | O=C(Nc1ccc(Cl)cc1F)NC1CCN(c2ccnc3ccc(F)cc23)CC1 [Example 92, 1-(4-Chloro-2-fluorophenyl)-3-(1-(6-fluoroquinolin-4-yl)piperidin-4-yl)urea] | > 5.70
8 | CCC(NC(=O)c1ccc(C#N)cc1)C1CCC(c2ccnc3ccc(F)cc23)CC1 (single isomer, unassigned) [Example 165a, 4-Cyano-N-(1-(4-(6-fluoroquinolin-4-yl)cyclohexyl)propyl)benzamide] | > 5.70
9 | Cc1ccc(S(=O)(=O)N[C@H](C)[C@H]2CC[C@@H](c3ccnc4ccc(F)cc43)CC2)cc1 [Example 41, N-((R)-1-((1s,4S)-4-(6-fluoroquinolin-4-yl)cyclohexyl)ethyl)-4-methylbenzenesulfonamide] | > 6.60
10 | Cc1cc(C2CCC(C(C)NC(=O)c3ccc(Cl)cc3)CC2)ccn1 (centres unmarked) [Example 157a, 4-Chloro-N-(1-(4-(2-methylpyridin-4-yl)cyclohexyl)ethyl)benzamide] | > 6.60
11 | CC(NC(=O)c1ccc(Cl)cc1)C1CCC(c2ccnc(C(F)(F)F)c2)CC1 (single isomer, unassigned) [Example 213, 4-chloro-N-(1-(4-(2-(trifluoromethyl)pyridin-4-yl)cyclohexyl)ethyl)benzamide] | > 7.30
12 | O=C(Nc1ccc(Cl)cc1)N[C@H]1CC[C@@H](c2ccnc3ccc(F)cc32)CC1 [Example 125, 1-(4-Chlorophenyl)-3-(cis-4-(6-fluoroquinolin-4-yl)cyclohexyl)urea] | > 6.60
13 | C[C@@H](NC(=O)c1ccc(-c2cn(C)cn2)cc1)[C@H]1CC[C@@H](c2ccnc3ccc(F)cc32)CC1 [Example 235, N-((R)-1-((1s,4S)-4-(6-fluoroquinolin-4-yl)cyclohexyl)cthyl)-4-(1-methyl-1H-imidazol-4-yl)benzamide] | > 7.30
14 | C[C@@H](NC(=O)c1cccc(-c2ccccc2)c1)[C@H]1CC[C@@H](c2ccnc3ccc(F)cc32)CC1 [Example 61, N-((R)-1-((1s,4S)-4-(6-fluoroquinolin-4-yl)cyclohexyl)ethyl)-[1,1′-biphenyl]-3-carboxamide] | > 7.30
15 | C[C@@H](NC(=O)c1ccc(N2CCOCC2)cc1)[C@H]1CC[C@@H](c2ccnc3ccc(F)cc32)CC1 [Example 246, N-((R)-1-((1s,4S)-4-(6-fluoroquinolin-4-yl)cyclohexyl)ethyl)-4-morpholinobenzamide] | > 6.60
16 | C[C@@H](NC(=O)c1ccccc1-c1ccccc1)[C@H]1CC[C@@H](c2ccnc3ccc(F)cc32)CC1 [Example 69, N-((R)-1-((1s,4S)-4-(6-fluoroquinolin-4-yl)cyclohexyl)ethyl)-[1,1′-biphenyl]-2-carboxamide] | > 7.30
17 | C[C@@H](NC(=O)c1ccccc1)[C@H]1CC[C@@H](c2ccnc3ccc(F)cc32)CC1 [Example 48, N-((R)-1-((1s,4S)-4-(6-fluoroquinolin-4-yl)cyclohexyl)ethyl)benzamide] | > 7.30
18 | Cc1cc(C2CCC(C(C)NC(=O)c3ccc(Cl)cc3)CC2)ccn1 (single isomer, unassigned) [Example 157c, 4-Chloro-N-(1-(4-(2-methylpyridin-4-yl)cyclohexyl)ethyl) Benzamide] | > 5.70

Row | Compound | pIC50
19 | C[C@@H](NC(=O)c1ccc(C2(C)CC2)cc1)[C@H]1CC[C@@H](c2ccnc3ccc(F)cc32)CC1 [Example 248, N-((R)-1-((1s,4S)-4-(6-fluoroquinolin-4-yl)cyclohexyl)ethyl)-4-(1-methylcyclopropyl)benzamide] | > 7.30
20 | Cc1c(C2CCC(C(C)NC(=O)c3ccc(-c4ccccc4)cc3)CC2)ccnc1F (centres unmarked) [Example 221, N-(1-(4-(2-fluoro-3-methylpyridin-4-yl)cyclohexyl)ethyl)-[1,1′-biphenyl]-4-carboxamide] | > 7.30
21 | Cc1cccc(C(=O)N[C@H](C)[C@H]2CC[C@@H](c3ccnc4ccc(F)cc43)CC2)c1 [Example 50, N-((R)-1-((1s,4S)-4-(6-fluoroquinolin-4-yl)cyclohexyl)ethyl)-3-methyl benzamide] | > 7.30
22 | CCC(NC(=O)c1ccc(Cl)cc1)[C@H]1CC[C@H](Oc2ccnc3ccccc23)CC1 (mixture of isomers) [Example 71, 4-Chloro-N-(1-((trans)-4-(quinolin-4-yloxy)cyclohexyl)propyl)benzamide] | > 7.30
23 | C[C@@H](NC(=O)c1ccc(-c2ncnn2C)cc1)[C@H]1CC[C@@H](c2ccnc3ccc(F)cc32)CC1 [Example 251, N-((R)-1-((1s,4S)-4-(6-fluoroquinolin-4-yl)cyclohexyl)ethyl)-4-(1-methyl-1H-1,2,4-triazol-5-yl)benzamide] | > 6.60
24 | CCC(NC(=O)c1ccc(Cl)cc1)C1CCC(c2cccc(C(F)F)n2)CC1 (mixture of isomers) [Example 231a, 4-chloro-N-(1-(4-(6-(difluoromethyl)pyridin-2-yl)cyclohexyl)propyl)benzamide] | > 6.60
25 | Cc1c(C2CCC(C(C)NC(=O)c3ccc(-c4ccccc4)cc3)CC2)ccnc1F (single isomer, unassigned) [Example 224, N-(1-(4-(2-fluoro-3-methylpyridin-4-yl)cyclohexyl)ethyl)-[1,1′-biphenyl]-4-carboxamide] | > 6.60
26 | CCOc1ccc(C(=O)N[C@H](C)[C@H]2CC[C@@H](c3ccnc4ccc(F)cc43)CC2)nc1 [Example 163, 5-Ethoxy-N—((R)-1-(cis-4-(6-fluoroquinolin-4-yl)cyclohexyl)ethyl)picolinamide] | > 7.30
27 | COc1ccccc1C(=O)N[C@H](C)[C@H]1CC[C@@H](c2ccnc3ccc(F)cc32)CC1 [Example 52, N-((R)-1-((1s,4S)-4-(6-fluoroquinolin-4-yl)cyclohexyl)ethyl)-2-methoxybenzamide] | > 7.30
28 | CC(NC(=O)c1ccc(Cl)cc1)C1CCC(c2ccnc(C(F)(F)F)c2)CC1 (centres unmarked) [Example 211, 4-chloro-N-(1-(4-(2-(trifluoromethyl)pyridin-4-yl)cyclohcxyl)ethyl)benzamide] | > 6.60
29 | CCC(NC(=O)c1ccc(Cl)cc1)C1CCC(c2ccnc3ccc(F)cc23)CC1 (single isomer, unassigned) [Example 164b, 4-Chloro-N-(1-(4-(6-fluoroquinolin-4-yl)cyclohexyl)propyl)benzamide] | > 7.30
30 | Cc1nnc(-c2ccc(C(=O)N[C@H](C)[C@H]3CC[C@@H](c4ccnc5ccc(F)cc54)CC3)cc2)o1 [Example 232, N—((R)-1-((1s,4S)-4-(6-fluoroquinolin-4-yl)cyclohexyl)ethyl)-4-(5-methyl-1,3,4-oxadiazol-2-yl)benzamide] | > 6.60
31 | Cc1cccc(S(=O)(=O)N[C@H](C)[C@H]2CC[C@@H](c3ccnc4ccc(F)cc43)CC2)c1 [Example 40, N—((R)-1-((1 s,4S)-4-(6-Fluoroquinolin-4-yl)cyclohexyl)ethyl)-3-methylbenzenesulfonamide] | > 5.70
32 | CC(C(=O)N[C@H]1CC[C@@H](c2ccnc3ccc(F)cc32)CC1)c1ccc(Cl)cc1 (stereo partly drawn) [Example 148, 2-(4-chlorophenyl)-N-(cis-4-(6-fluoroquinolin-4-yl)cyclohexyl)propanamide] | > 5.70
33 | C[C@@H](NC(=O)c1cccc(F)c1)[C@H]1CC[C@@H](c2ccnc3ccc(F)cc32)CC1 [Example 55, 3-fluoro-N-((R)-1-((1S,4S)-4-(6-fluoroquinolin-4-yl)cyclohexyl)ethyl)benzamide] | > 7.30
34 | O=C(Cc1ccc(Cl)cc1)N[C@H]1CC[C@@H](c2ccnc3ccc(F)cc32)CC1 [Example 147, 2-(4-chlorophenyl)-N-(cis-4-(6-fluoroquinolin-4-yl)cyclohexyl)acetamide] | > 5.70
35 | O=C(NCC1CCN(c2ccnc3ccc(F)cc23)CC1)c1ccc(Cl)c(Cl)c1 [Example 87, 3,4-Dichloro-N-((1-(6-fluoroquinolin-4-yl)piperidin-4-yl)methyl)benzamide] | > 6.60
